From patent publication US20200255828A1, “METHODS AND COMPOSITIONS FOR ALTERING FUNCTION AND STRUCTURE OF CHROMATIN LOOPS AND/OR DOMAINS” (THE BROAD INSTITUTE, INC., priority 2017, published 2020) come the findings set out here.

Structures are written as SMILES.

One assay relates to HCT-116 RAD21-mAC cells. In words: In situ Hi-C: APA for cohesin-independent links between superenhancers. The class given is cell-based, human. The source says:
Applicants first annotated loops in our maps for auxin-treated RAD21-mAC cells using default HiCCUPS parameters for 5, 10, and 25 kb resolutions (Durand et al., 2016b; Rao et al., 2014) with the additional requirement that the peak pixel show […] 4.5-fold enrichment over local expected (in order to remove as many false positives as possible due to rearrangements and assembly issues, see above). Using this procedure, Applicants annotated 81 loops in treated RAD21-mAC cells. […] The false discovery rate for HiCCUPS is much higher in treated cells because the number of true positives is dramatically lower. […] Applicants also noticed that the anchors involved in these 15 loops were often forming long-range loops at distances of tens of megabases and hundreds of megabases. Applicants reasoned that HiCCUPS using default parameters for loop detection was missing many of these extremely long-range loops because of the extra stringency of the HiCCUPS lambda chunking procedure for multiple hypothesis testing for pixels with low counts (i.e. pixels far off the diagonal).
More specifically, Applicants annotated loops by running HiCCUPS at 50 and 100 kb resolutions with the following parameters: p=2,1; w=4,2; fdr=10%, 10%. Applicants additionally filtered loops that were within 5 Mb of the diagonal, had less than a 2-fold observed/expected for any of the local expected, and had fewer than 3 pixels clustered into the peak pixels (see section VI.a.5 of Rao et al., 2014). This annotation yielded 88 loops. […] Combining these 46 loops with the 15 loops annotated with high resolution HiCCUPS, Applicants obtained a final curated list of 61 intrachromosomal cohesin-independent loops.
To annotate these interchromosomal links between pairs of cohesin-independent loop anchors, Applicants used HiCCUPS to calculate local enrichments at 100 kb resolution for all possible interchromosomal pairs of cohesin-independent loop anchors. Applicants then identified enriched focal interchromosomal interactions by filtering for links that were enriched at least 5.5-fold over local background (empirically chosen to ensure a <10% false discovery rate). Using this procedure, Applicants identified 203 interchromosomal cohesin-independent links. This likely underestimates the true number of interchromosomal cohesin-independent links, as evidenced by FIG. SA.
Applicants analyzed the change in strength of cohesin-independent links after auxin treatment by using APA at 100 kb resolution.
Applicants also analyzed induction of cohesin-independent links across an auxin treatment and withdrawal time course. This analysis was performed as above with the cohesin-associated loops and loop domains, but at 100 kb resolution instead of 10 kb resolution and for both our 61 intrachromosomal links and our 203 interchromosomal links. […] Similar results were seen upon performing the time course APA at 100 kb resolution using all intrachromosomal pairs of the 47 superenhancer overlapping anchors in the 88-loop automated list from above (FIG. 11E).

For the next assay, the system named is RAD21-mAC cells. In words: Gene expression changes between untagged HCT-116 cells and auxin-treated RAD21-mAC cells. To be noted: auxin-treated RAD21-mAC cells compared with untagged HCT-116 cells. The class given is cell-based. The source says: To our surprise, Applicants only identified 68 cell type specific loops (compared to […] each per pair of cell types in Rao et al 2014). In order to increase statistical power, Applicants identified 518 loops that had been called in one of our cell types in Rao et al 2014 (HMEC, IMR90, K562, HUVEC, HeLa, NHEK) but not in GM12878, or vice versa and had been associated with 10-fold upregulation of a gene whose promoter lay at the loop anchor. Applicants sought to then identify cases where these loop-gene pairs were present in HCT-116 to then examine the results of loop loss. However, only 15 of the 518 loops were conserved in HCT-116. […] Alternatively, it is possible that the tagging of cohesin and resulting potential loss of stability results in preferential loss of cell type specific loops. […] In fact, it may be the case that some other regulatory event catalyzes both loop formation and gene activation, or that gene activation itself enables loop formation.

As for `O=C(O)Cc1c[nH]c2ccccc12` [auxin, indole-3-acetic acid], in the assay with HCT-116 RAD21-mAC cells (APA at 100 kb resolution, intra and interchromosomal), the “strengthening of cohesin-independent links after auxin treatment” value is roughly 2 fold. Also, the “intrachromosomal APA score of cohesin-independent links, treated” value is reported as 2.75 in the assay on HCT-116 RAD21-mAC cells (automatedly generated list, untreated 1.69) and 4.02 in the assay with HCT-116 RAD21-mAC cells (manually curated list of 61 links, untreated 2.32). Further, the “interchromosomal APA score of cohesin-independent links, treated” value was determined as 3.64 in the assay with HCT-116 RAD21-mAC cells (automatedly generated list, untreated 2.29) and 7.02 in the assay on HCT-116 RAD21-mAC cells (manually curated list of 203 links, untreated 3.02). Also, the “genes with a greater than 5-fold change in expression” value with RAD21-mAC cells worked out at 3.
